Common to all, as to format: cell-based
In one experiment the target is T1, human TLR9 (Homo sapiens, UniProt Q9NR96).
T1 construct: host or cells: HEK-Blue cells
T1 sequence (Q9NR96 26-1032): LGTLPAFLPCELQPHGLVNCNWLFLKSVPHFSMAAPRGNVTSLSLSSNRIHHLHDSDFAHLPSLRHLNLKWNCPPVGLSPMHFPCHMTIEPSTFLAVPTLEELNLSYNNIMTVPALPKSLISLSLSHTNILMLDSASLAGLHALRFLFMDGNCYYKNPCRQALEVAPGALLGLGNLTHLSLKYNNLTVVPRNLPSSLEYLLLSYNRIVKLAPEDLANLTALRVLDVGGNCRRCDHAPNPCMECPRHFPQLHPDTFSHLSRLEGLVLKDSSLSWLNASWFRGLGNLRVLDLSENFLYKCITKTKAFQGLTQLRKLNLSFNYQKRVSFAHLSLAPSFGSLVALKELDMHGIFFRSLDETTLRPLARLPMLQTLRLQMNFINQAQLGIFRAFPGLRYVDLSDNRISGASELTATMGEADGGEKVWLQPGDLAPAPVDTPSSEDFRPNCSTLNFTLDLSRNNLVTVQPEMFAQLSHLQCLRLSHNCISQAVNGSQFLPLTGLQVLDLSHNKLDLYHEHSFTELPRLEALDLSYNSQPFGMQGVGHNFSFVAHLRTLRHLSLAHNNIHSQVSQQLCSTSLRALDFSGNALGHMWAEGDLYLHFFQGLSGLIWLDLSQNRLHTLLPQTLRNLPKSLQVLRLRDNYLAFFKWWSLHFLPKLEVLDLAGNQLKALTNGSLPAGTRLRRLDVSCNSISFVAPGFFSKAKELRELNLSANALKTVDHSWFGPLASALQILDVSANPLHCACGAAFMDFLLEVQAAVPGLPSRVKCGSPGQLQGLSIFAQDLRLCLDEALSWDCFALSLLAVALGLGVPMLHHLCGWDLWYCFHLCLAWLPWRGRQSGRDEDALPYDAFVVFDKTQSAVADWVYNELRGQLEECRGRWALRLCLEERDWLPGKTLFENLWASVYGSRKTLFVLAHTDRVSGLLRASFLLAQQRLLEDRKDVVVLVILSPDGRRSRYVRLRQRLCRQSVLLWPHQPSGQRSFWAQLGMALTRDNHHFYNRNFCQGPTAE
Description: TLR9 inhibition reporter assay (HEK-Blue SEAP). The settings on record: HEK-Blue cells overexpressing human TLR9, stimulated with ODN2006 5 nM, 22 hour incubation. Summed up: (§1)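 Cells are seeded, given test compound across 0.05 nM to 50 μM, and after 30 min at room temperature stimulated with the receptor's agonist (gardiquimod 7.5 μM, R848 15.9 μM or ODN2006 5 nM for TLR7, 8, 9). SEAP is measured after 22 h at 37 °C.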
(Reporter assays use an easily measured gene product as a stand-in for the process of interest.)

The next experiment has as its target T2, human TLR8 (Homo sapiens, UniProt Q9NR97).
T2 construct: host or cells: HEK-Blue cells
T2 sequence (Q9NR97 27-1041): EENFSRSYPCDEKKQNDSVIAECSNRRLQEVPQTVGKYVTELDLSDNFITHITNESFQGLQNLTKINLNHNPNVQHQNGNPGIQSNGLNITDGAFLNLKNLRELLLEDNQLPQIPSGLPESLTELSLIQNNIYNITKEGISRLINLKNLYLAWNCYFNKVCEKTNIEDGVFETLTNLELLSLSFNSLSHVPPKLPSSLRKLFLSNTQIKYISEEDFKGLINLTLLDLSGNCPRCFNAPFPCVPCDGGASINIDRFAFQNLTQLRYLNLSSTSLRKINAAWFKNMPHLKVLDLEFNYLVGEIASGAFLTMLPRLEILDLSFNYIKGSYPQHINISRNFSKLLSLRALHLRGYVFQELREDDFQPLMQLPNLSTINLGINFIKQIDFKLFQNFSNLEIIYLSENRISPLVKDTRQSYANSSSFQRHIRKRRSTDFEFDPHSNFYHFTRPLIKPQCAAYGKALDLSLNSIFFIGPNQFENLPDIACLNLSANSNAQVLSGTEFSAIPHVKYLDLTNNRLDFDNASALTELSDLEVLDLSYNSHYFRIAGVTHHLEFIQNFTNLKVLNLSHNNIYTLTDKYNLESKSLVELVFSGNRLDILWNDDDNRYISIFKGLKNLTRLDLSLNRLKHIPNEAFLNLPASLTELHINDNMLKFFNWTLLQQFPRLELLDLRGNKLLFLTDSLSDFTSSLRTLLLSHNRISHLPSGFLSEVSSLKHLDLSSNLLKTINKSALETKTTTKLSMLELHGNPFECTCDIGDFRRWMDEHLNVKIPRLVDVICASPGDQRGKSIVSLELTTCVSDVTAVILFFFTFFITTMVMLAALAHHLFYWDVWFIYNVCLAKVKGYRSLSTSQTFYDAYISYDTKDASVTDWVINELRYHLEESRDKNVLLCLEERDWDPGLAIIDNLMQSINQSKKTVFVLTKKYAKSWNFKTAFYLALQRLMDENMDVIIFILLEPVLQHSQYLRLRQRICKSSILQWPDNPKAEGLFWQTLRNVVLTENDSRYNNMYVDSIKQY
Description: TLR8 inhibition reporter assay (HEK-Blue SEAP). The settings on record: HEK-Blue cells overexpressing human TLR8, stimulated with R848 15.9 μM, 22 hour incubation. Summed up:
as §1

Another experiment concerns the target T3, human TLR7 (Homo sapiens, UniProt Q9NYK1).
T3 construct: host or cells: HEK-Blue cells
T3 sequence (Q9NYK1 27-1049): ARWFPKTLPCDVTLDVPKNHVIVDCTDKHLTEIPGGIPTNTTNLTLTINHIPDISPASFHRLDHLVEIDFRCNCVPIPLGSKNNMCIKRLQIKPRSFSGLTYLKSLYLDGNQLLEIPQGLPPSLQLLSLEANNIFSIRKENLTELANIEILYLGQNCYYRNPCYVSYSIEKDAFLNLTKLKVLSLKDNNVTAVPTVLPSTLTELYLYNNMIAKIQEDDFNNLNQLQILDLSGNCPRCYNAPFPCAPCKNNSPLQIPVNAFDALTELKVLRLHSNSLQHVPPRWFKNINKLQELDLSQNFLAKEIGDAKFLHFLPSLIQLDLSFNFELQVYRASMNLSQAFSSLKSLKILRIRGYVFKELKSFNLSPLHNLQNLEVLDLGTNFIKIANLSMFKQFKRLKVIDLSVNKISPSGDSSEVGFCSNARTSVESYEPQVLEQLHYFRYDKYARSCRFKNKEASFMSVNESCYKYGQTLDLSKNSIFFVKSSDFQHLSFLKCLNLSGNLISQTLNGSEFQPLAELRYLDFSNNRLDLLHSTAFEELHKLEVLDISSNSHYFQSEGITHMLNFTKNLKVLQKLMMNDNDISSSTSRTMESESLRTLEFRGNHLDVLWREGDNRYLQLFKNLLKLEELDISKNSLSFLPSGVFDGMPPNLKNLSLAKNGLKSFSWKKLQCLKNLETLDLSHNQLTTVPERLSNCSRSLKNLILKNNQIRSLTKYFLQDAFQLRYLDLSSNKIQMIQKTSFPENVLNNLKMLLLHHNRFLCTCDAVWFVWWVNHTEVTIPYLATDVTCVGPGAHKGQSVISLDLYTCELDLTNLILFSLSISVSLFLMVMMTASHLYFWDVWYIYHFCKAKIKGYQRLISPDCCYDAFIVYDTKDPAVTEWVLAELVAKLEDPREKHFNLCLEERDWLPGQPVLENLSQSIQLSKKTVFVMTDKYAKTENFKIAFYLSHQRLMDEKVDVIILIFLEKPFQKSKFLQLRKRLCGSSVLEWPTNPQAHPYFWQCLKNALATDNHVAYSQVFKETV
The experiment can be described thus: TLR7 inhibition reporter assay (HEK-Blue SEAP). The following applies: HEK-Blue cells overexpressing human TLR7, stimulated with gardiquimod 7.5 μM, 22 hour incubation. Summed up:
as §1

For 14 compounds, IC50 results are on record in patent US12172995B2, “Substituted indole and indazole compounds” (BRISTOL-MYERS SQUIBB COMPANY, priority 2018, dated 2024).

Structures are written as SMILES.

For orientation: IC50 means the concentration at which inhibition is half-maximal. High values mean lower potency, low ones higher potency. `COc1ccc(-c2cc3[nH]nc(C4CCCNC4)c3cc2C)cc1OC` (stereo not drawn) [Example 62, 6-(3,4-dimethoxyphenyl)-5-methyl-3-(piperidin-3-yl)-1H-indazole]: the figures for the IC50 against human TLR9, against human TLR8 and against human TLR7 were 3.2 µM, 0.0052 µM and 0.824 µM, respectively.

Turning to `COc1cc(-c2cc3[nH]ncc3cc2C)cn2ncnc12` [Example 64, 8-methoxy-6-(5-methyl-1H-indazol-6-yl)-[1,2,4]triazolo[1,5-a]pyridine], the figures for the concentration for half-maximal inhibition (IC50) against human TLR9, on human TLR8 and on human TLR7 were 9.04 µM, 0.0418 µM and 0.905 µM, respectively.

With `Cc1cc(-c2cc(C)c3ncnn3c2)cc2[nH]ncc12` [Example 65, 8-methyl-6-(4-methyl-1H-indazol-6-yl)-[1,2,4]triazolo[1,5-a]pyridine], the results for the half-inhibitory concentration (IC50) against human TLR9, against human TLR8 and against human TLR7 were no less than 50 µM, 0.047 µM and 0.219 µM, respectively.

As to `COc1cc(-c2cc(C)c3cn[nH]c3c2)cn2ncnc12` [Example 66, 8-methoxy-6-(4-methyl-1H-indazol-6-yl)-[1,2,4]triazolo[1,5-a] pyridine], the figures for the IC50 against human TLR9, on human TLR8 and at human TLR7 were 8.84 µM, 0.0454 µM and 0.218 µM, respectively.

On to `Cc1cc2c(C3CCN(CC(C)(C)O)CC3)n[nH]c2cc1-c1cc(C)c2ncnn2c1` [Example 67, 2-methyl-1-(4-(5-methyl-6-(8-methyl-[1,2,4]triazolo[1,5-a]pyridin-6-yl)-1H-indazol-3-yl)piperidin-1-yl)propan-2-ol], for which the values for the IC50 against human TLR9, against human TLR8 and on human TLR7 were 3.96 µM, 0.0009 µM and 0.0238 µM, respectively.

With `Cc1cc2c(C3CCN(CCS(C)(=O)=O)CC3)n[nH]c2cc1-c1cc(C)c2ncnn2c1` [Example 68, 8-methyl-6-(5-methyl-3-(1-(2-(methylsulfonyl)ethyl)piperidin-4-yl)-1H-indazol-6-yl)-[1,2,4]triazolo[1,5-a]pyridine], the IC50 was determined as 13 µM on human TLR9, 0.0025 µM against human TLR8 and 0.068 µM against human TLR7.

Consider `Cc1cc2c(C3CCN(CCNS(C)(=O)=O)CC3)n[nH]c2cc1-c1cc(C)c2ncnn2c1` [Example 69, N-(2-(4-(5-methyl-6-(8-methyl-[1,2,4]triazolo[1,5-a]pyridin-6-yl)-1H-indazol-3-yl)piperidin-1-yl)ethyl) methanesulfonamide], for which the results for the IC50 against human TLR9, against human TLR8 and on human TLR7 were 1.31 µM, 0.0014 µM and 0.018 µM, respectively.

Regarding `Cc1cc2c(C3CCN(CC(N)=O)CC3)n[nH]c2cc1-c1cc(C)c2ncnn2c1` [Example 70, 2-(4-(5-methyl-6-(8-methyl-[1,2,4]triazolo[1,5-a]pyridin-6-yl)-1H-indazol-3-yl)piperidin-1-yl)acetamide], the half-inhibitory concentration (IC50) on human TLR9 was 6.21 µM; against human TLR8 it was 0.0014 µM; against human TLR7 it was 0.0183 µM.

On to `Cc1cc2c(C3CCN(CC#N)CC3)n[nH]c2cc1-c1cc(C)c2ncnn2c1` [Example 71, 2-(4-(5-methyl-6-(8-methyl-[1,2,4]triazolo[1,5-a]pyridin-6-yl)-1H-indazol-3-yl)piperidin-1-yl)acetonitrile], for which the 50% inhibitory concentration (IC50) stood at 1.37 µM on human TLR9, 0.0033 µM against human TLR8 and 0.0098 µM on human TLR7.

Regarding `Cc1cc2c(C3CCN(CCC#N)CC3)n[nH]c2cc1-c1cc(C)c2ncnn2c1` [Example 72, 3-(4-(5-methyl-6-(8-methyl-[1,2,4]triazolo[1,5-a]pyridin-6-yl)-1H-indazol-3-yl)piperidin-1-yl)propanenitrile], the results for the IC50 against human TLR9, against human TLR8 and against human TLR7 were 11.2 µM, 0.0023 µM and 0.0508 µM, respectively.

`Cc1cc2c(C3CCN(C4COC4)CC3)n[nH]c2cc1-c1cc(C)c2ncnn2c1` [Example 73, 8-methyl-6-(5-methyl-3-(1-(oxetan-3-yl)piperidin-4-yl)-1H-indazol-6-yl)-[1,2,4] triazolo[1,5-a]pyridine]: the figures for the 50% inhibitory concentration (IC50) at human TLR9, against human TLR8 and against human TLR7 were 9.07 µM, 0.0043 µM and 0.0523 µM, respectively.

Consider `Cc1cc2c(C3CCNCC3)n[nH]c2cc1-c1cc(C)c2nnnn2c1` [Example 74, 8-methyl-6-(5-methyl-3-(piperidin-4-yl)-1H-indazol-6-yl) tetrazolo[1,5-a]pyridine], for which the IC50 worked out at 4.94 µM on human TLR9, 0.0155 µM against human TLR8 and 0.0493 µM against human TLR7.

Consider `Cc1cc(-c2cc(C)c3ncnn3c2)cc2[nH]nc(C3CCN(C(=O)CN(C)C)CC3)c12` [Example 75, 2-(dimethylamino)-1-(4-(4-methyl-6-(8-methyl-[1,2,4]triazolo[1,5-a]pyridin-6-yl)-1H-indazol-3-yl)piperidin-1-yl)ethan-1-one], for which the half-maximal inhibitory concentration (IC50) worked out at 1.92 µM against human TLR9, 0.0141 µM against human TLR8 and 0.0072 µM against human TLR7.

Take `Cc1cc(-c2cc(C)c3ncnn3c2)cc2[nH]nc(C3CCN(CC(=O)N(C)C)CC3)c12` [Example 76, N,N-dimethyl-2-(4-(4-methyl-6-(8-methyl-[1,2,4]triazolo[1,5-a]pyridin-6-yl)-1H-indazol-3-yl)piperidin-1-yl) acetamide]: the IC50 against human TLR9 was found to be 2.11 µM; at human TLR8, 0.0378 µM; against human TLR7, 0.0069 µM.
